Source: PMC12189671, “Antioxidant Activity and Cytotoxicity Evaluation of New Catechol Hydrazinyl-Thiazole Derivatives as Potential Protectors in Retinal Degenerative Processes” (Antioxidants, 2025)
One block for each compound: values may come before it.

Legend:
[1] = Cell viability (resazurin) on ARPE-19; format: cell-based, human; details: human, ARPE-19 cells; for IC50 at 24 h: ARPE-19, 24 h, read-out: 24 h Exposure IC50 (cytotoxicity); for IC50 at 48 h: ARPE-19, 48 h, read-out: 48 h Exposure IC50 (cytotoxicity)
Source text: The ARPE-19 cell line was purchased from CLS Cell Lines Service GmbH (Eppelheim, Germany) and cultured in Dulbecco’s modified Eagle’s medium/F-12 (HAM) 1:1 (Biological Industries, Beit, Israel). The medium was supplemented with 10% fetal bovine serum (FBS) (Thermo Fisher Scientific, Waltham, MA, USA) and 1% penicillin-streptomycin (Biosera, Cholet, France). The cancerous cell line A549 was purchased from ATCC (Manassas, VA, USA) and cultivated in high-glucose Dulbecco’s modified Eagle’s medium (DMEM 4.5 g/L). The normal BJ cell line was also purchased from ATCC (Manassas, VA, USA) and was cultivated in low-glucose Dulbecco’s modified Eagle’s medium (DMEM 1 g/L). The media was supplemented in both cases with 10% FBS. Cells were cultured in T75 flasks and incubated at 37 °C in a humidified incubator with 5% CO2 supplementation. For maintenance, the media was changed every 2–3 days, and when the confluence of the flask reached approximately 85%, the cells were either subcultured or further used in the experiments.
ARPE-19 cells were seeded at a density of 2 × 10^4 cells/well and 1 × 10^4 cells/well (suspended in 100 µL) in 96-well plates for 24 h and 48 h, respectively. For the BJ cells, the seeding density was 0.5 × 10^4 cells/well and 0.3 × 10^4 cells/well for 24 h and 48 h, respectively, and for the A549 cells, 1.5 × 10^4 cells/well for 24 h and 0.75 × 10^4 cells/well for 48 h. As cells have different sizes and volumes, the different seeding densities were selected to reach a confluency of 80–90% by the end of the experiments. Cells were further exposed to the synthesized compounds for 24/48 h at concentrations ranging from 12.5 to 500 µM. After the incubation period, the exposure media was removed, the cells were washed with PBS, and further incubated with a 200 µM resazurin solution for 3 h as described in our previous report. The conversion of resazurin to the fluorescent resorufin compound by viable cells was measured at λexcitation = 550; λemission = 600, using SpectraMax iD3 (Molecular Devices, San Jose, CA, USA). The experiments were conducted in biological triplicate, each with a minimum of 3 technical replicates. The measured viability was expressed as relative values to the control (cells exposed only to the vehicle–culture medium containing 0.4% DMSO).

[2] = DPPH radical scavenging assay; details: for IC50: 30 min incubation, λ = 517 nm
Experimental: The DPPH^• radical scavenging assay is based on transferring a hydrogen atom from the tested compounds to the violet stable free radical DPPH^• (2,2-diphenyl-1-picrylhydrazyl radical), converting it into a yellow compound. The assay was conducted using tested compounds and references in concentrations ranging from 2 to 50 µM, according to our adaptation of the protocol of Brand-Williams et al.. The absorbance of the samples is given by the remaining unreacted reagent radical, and it is inversely proportional to the amount of DPPH^• neutralized. The absorbance of the samples was measured at λ = 517 nm after 30 min of incubation in the dark at room temperature. The DPPH^• radical scavenging activity of the compounds was calculated using Equation (1):(1) DPPH^• scavenging (%)=control absorbance−sample absorbance/control absorbance×100

[3] = Indirect 1O2 scavenging assay (ICG photo-generator, DPBF probe); details: 10^−5 M ICG and scavenger, 785 nm laser, 100 s
Experimental: The ^1O2 scavenging assay was employed using a previously established indirect protocol from our research group. In brief, indocyanine green (ICG), from Sigma–Aldrich (St. Louis, MO, USA), was utilized to induce ^1O2 production in the presence of 5a and 5b. Ascorbic acid was used as a reference antioxidant agent, and a blank sample without ^1O2 scavengers was prepared. The reaction mixtures were exposed to a Micro Raman System R-3000 (Photonitech, Singapore, Singapore) laser diode,(λ = 785 nm, 190 mW power) for a total time of 100 s. To evaluate the ^1O2 scavenging activity of the compounds 5a,b, the degradation of 1,3-diphenylisobenzofuran (DPBF), obtained from Alfa Aesar (Haverhill, MA, USA), was measured using a V-730 spectrophotometer (Jasco International Co., Ltd., Tokyo, Japan). To determine the ^1O2 quantum yields (Φ(^1O2)) of ICG in the presence of the studied molecules, the following equation was used: Φ(^1O2) = Φ(^1O2) ^ICG × ((S × F^ICG)/(S^ICG × F)), where S represents the slope of the absorbance difference of DPBF over time, F is the absorption correction factor (F = 1 − 10^−OD), and OD is the optical density at the excitation wavelength, λ = 785 nm. The Φ(^1O2) equal to 15.0% of free ICG was used as a reference. The concentrations utilized in the experiment were 0.1 mM for DPBF and 10^−5 M for ICG and the ^1O2 scavengers. Free DPBF was used as a control.
The efficacy of compounds 5a,b against ^1O2 was assessed using an indirect approach. ICG was used as a photo-induced ^1O2 generator alongside DPBF, serving as an indirect chemical probe capable of characterizing ^1O2 release in solution. This setup allowed us to evaluate the ^1O2 scavenging capacity of the tested molecules and compare their activity to a reference compound, specifically ascorbic acid. The samples were exposed to 785 nm laser radiation, and at 10-s intervals after irradiation, their UV-Vis absorption spectra were measured and analyzed (Figure 9). Subsequently, we determined the ^1O2 quantum yields (Φ(^1O2)) of ICG in the presence of 5a,b and ascorbic acid, using the Φ(^1O2) of free ICG of 15.0% as reference.

[4] = Ferric Reducing Antioxidant Potential (FRAP) assay; details: molar equivalents of reference compound
Source text: The results of the evaluation of the electron ability transfer of the tested compound were expressed as molar equivalents of the reference compound per one mol of the tested compound using the formula: % of control activity=sample absorbance/reference absorbance×100 The Ferric Reducing Antioxidant Potential (FRAP) assay measures the ability of an antioxidant to transfer an electron to Fe^3+, converting it to Fe^2+. […] The solutions were thoroughly mixed in the dark, and their absorbance was measured spectrophotometrically at λ = 593 nm.

SMILES: C/C=C/C=N/Nc1nc(-c2ccc(O)c(O)c2)cs1.Cl [Compound 5a, 4-(2-(2-((1E,2E)-but-2-en-1-ylidene)hydrazineyl)thiazol-4-yl)benzene-1,2-diol hydrochloride]
- IC50 at 24 h [1]: 90.1 µM
- IC50 at 48 h [1]: 92.7 µM
- IC50 [2]: 9.8 µM
- fold higher activity than the reference compounds in the DPPH^• scavenging assay ([2]; compared to ascorbic acid and Trolox): up to 5 fold
- ^1O2 quantum yield Φ(^1O2) of ICG in the presence of the scavenger [3]: 11.1%
- FRAP Eq Trolox [4]: 1.49 Eq Trolox

- IC50 [2]: 18.4 µM
SMILES: CC1=C(/C=C/C(C)=N/Nc2nc(-c3ccc(O)c(O)c3)cs2)C(C)(C)CCC1.Cl [Compound 5b, 4-(2-(2-((2E,3E)-4-(2,6,6-trimethylcyclohex-1-en-1-yl)but-3-en-2-ylidene) hydrazineyl)thiazol-4-yl)benzene-1,2-diol hydrochloride]
- IC50 at 24 h [1]: 31.5 µM
- IC50 at 48 h [1]: 52.1 µM
- viability at 24 h, 12.5 µM ([1]; ARPE-19, 24-h exposure, 12.5 µM, read-out: cell viability (% of control)): 63.5%
- ^1O2 quantum yield Φ(^1O2) of ICG in the presence of the scavenger [3]: 11%
- FRAP Eq Trolox [4]: 1.39 Eq Trolox
